Assay results from PMC6154319, “Intestinal Transport Characteristics and Metabolism of C-Glucosyl Dihydrochalcone, Aspalathin” (Molecules : A Journal of Synthetic Chemistry and Natural …, 2017).
Marks after values point to notes of the source that are not given here.

Experiments:
[1] = Stability of aspalathin (in SB1) in water and HEPES buffer; assay type: physicochemical; details: 2 h incubation, aspalathin in extract SB1
Caco-2 cells = test: Cytotoxicity of aspalathin on Caco-2 cells (Vialight plus kit); assay type: cell-based, human; details: HBSS buffer pH 6.0, apical side; 2 h exposure
Source text: Supplementary material for:
Intestinal Transport Characteristics and Metabolism of C-Glucosyl Dihydrochalcone, Aspalathin
Sandra Bowles 1,*, Elizabeth Joubert 2,3, Dalene de Beer 2,3, Johan Louw 1,4, Christel Brunschwig 5,6,7, Mathew Njoroge 5,6,7, Nina Lawrence 6, Lubbe Wiesner 7, Kelly Chibale 5,6,8,9, and Christo […]
1 Biomedical Research and Innovation Platform, South African Medical Research Council, Tygerberg, Cape Town, 7130, South Africa; johan.louw@mrc.ac.za (J.L.); christo.muller@mrc.ac.za (C.M.) 2 Plant Bioactives Group, Post-Harvest and Wine Technology Division, Agricultural Research Council, Infruitec-Nietvoorbij, Stellenbosch 7600, South Africa; JoubertL@arc.agric.za (E.J.); DBeerD@arc.agric.za […]
3 Department of Food Science, Stellenbosch University, Stellenbosch 7600, South Africa 4 Department of Biochemistry and Microbiology, University of Zululand, Kwa-Dlangezwa 3886, South […]
Caco-2 cells was assessed by the VialightTM plus kit. Caco-2 cells were seeded at a density of 4 x 10^4 cells/cm2 into white clear bottomed 96-well plates and cytotoxicity was assessed according to the manufacturer’s recommendation after 12–13 days. […]

SGLT1 = molecular target: T1, SGLT1 (Homo sapiens, UniProt P13866); details: aspalathin 100 µM; 100 µM phloridzin (SGLT1)
T1 sequence (P13866 1-664): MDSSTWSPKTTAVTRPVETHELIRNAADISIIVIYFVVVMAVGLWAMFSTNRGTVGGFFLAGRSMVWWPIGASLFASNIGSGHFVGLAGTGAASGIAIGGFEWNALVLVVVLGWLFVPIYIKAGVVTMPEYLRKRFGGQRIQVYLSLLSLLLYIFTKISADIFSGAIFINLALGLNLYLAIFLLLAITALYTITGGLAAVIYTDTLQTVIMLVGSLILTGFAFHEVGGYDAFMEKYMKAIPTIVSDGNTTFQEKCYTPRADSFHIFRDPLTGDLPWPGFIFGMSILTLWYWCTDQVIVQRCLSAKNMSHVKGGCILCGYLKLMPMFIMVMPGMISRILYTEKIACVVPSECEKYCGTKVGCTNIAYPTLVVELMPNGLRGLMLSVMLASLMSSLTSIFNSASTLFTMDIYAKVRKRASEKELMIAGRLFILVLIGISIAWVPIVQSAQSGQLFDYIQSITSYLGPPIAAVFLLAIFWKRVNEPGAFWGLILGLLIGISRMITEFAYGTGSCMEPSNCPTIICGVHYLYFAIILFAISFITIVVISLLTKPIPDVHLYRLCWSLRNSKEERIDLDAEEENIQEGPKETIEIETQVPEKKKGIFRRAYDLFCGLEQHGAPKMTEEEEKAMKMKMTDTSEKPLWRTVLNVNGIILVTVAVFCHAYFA
Description: (§1) The cell monolayers were equilibrated briefly with transport buffer, pH 6.0 (HBSS with 2-(N-morpholino) ethanesulphonic acid (MES)) on the apical side and pH 7.4 (HBSS with HEPES) on the basolateral side, to remove traces of the culture media. Following this, transport buffers were added for 30 min prior to the addition of treatment (inhibitors were added during this step when required, as well as during the subsequent treatment incubation step). After equilibration, the plates containing transport medium were incubated for 30 min at 37 °C at 5% CO2 in 95% humidified air and the TEER value of the monolayer determined. […] For basolateral-to-apical compartment studies, 2.4 mL of treatment at the same concentrations in HBSS (pH 7.4), was added to the basolateral compartment.
(§2) To assess whether aspalathin was co-transported with glucose, its transport (100 µM) at both high (20.5 mM) and low (5.5 mM) glucose concentrations, mimicking the intestinal lumen glucose concentrations pre- and post-meals, was monitored. This was followed by experiments performed in the presence and absence of SGLT1 (100 µM phloridzin), GLUT2 (100 µM phloretin) and efflux, PgP (100 µM verapamil) inhibitors.
(§3) Samples (1.2 mL) were withdrawn from the basolateral or the apical compartment to measure the concentration of aspalathin uptake and efflux, respectively at 0, 0.5, 1, 1.5, and 2 h under sink conditions (the sample aliquot replaced with equal volume of relevant transport buffer). Sample aliquots (350 µL) were frozen in liquid nitrogen after the addition of ascorbic acid (35 µL of 10% solution) and stored at −65 °C until HPLC analysis. Results were corrected for dilution and expressed as cumulative transport (% of initial dose) as a function of time. Papp (cm/s) for bi-directional transport studies was calculated as previously described. Transport of other major flavonoids in the matrices, i.e., nothofagin, the 3-deoxy analogue of aspalathin and its flavone derivatives, orientin and isoorientin, were also determined.

PgP = PgP (Homo sapiens, UniProt P08183); details: aspalathin 100 µM; 100 µM verapamil (PgP)
Description: as §1, §2, §3

PgP, sequence (P08183 whole entry): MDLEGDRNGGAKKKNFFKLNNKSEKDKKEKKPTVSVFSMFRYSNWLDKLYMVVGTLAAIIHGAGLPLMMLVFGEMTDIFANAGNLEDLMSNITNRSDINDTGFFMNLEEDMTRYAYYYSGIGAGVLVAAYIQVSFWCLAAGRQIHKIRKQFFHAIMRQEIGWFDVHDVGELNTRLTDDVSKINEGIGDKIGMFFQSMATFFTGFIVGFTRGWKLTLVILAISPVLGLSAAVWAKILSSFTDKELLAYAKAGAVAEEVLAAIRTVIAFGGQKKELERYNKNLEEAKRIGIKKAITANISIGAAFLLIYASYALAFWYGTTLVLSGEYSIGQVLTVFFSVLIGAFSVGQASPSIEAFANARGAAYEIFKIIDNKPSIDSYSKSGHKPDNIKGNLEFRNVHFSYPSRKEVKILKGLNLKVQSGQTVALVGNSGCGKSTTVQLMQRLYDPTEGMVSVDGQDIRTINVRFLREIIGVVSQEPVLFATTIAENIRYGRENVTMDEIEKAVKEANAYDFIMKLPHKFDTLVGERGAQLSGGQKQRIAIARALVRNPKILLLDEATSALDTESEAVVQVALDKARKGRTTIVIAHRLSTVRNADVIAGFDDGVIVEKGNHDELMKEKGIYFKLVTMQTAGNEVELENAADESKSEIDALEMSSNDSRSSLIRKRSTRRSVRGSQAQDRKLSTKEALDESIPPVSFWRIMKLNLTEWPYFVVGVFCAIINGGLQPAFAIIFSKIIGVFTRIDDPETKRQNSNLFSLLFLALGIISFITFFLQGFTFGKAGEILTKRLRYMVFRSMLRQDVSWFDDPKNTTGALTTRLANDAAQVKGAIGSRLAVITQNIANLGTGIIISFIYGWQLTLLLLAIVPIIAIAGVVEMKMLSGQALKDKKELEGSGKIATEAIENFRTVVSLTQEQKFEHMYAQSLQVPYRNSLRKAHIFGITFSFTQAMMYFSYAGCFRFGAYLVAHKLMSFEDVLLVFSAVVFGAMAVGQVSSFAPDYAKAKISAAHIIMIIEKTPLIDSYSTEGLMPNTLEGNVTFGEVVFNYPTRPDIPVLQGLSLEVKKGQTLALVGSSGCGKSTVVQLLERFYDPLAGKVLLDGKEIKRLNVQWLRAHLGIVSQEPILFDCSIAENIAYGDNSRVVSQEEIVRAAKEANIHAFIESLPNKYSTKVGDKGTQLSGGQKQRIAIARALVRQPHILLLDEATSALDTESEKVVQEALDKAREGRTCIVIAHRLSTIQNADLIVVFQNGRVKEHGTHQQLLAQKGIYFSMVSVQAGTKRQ

O=C(CCc1ccc(O)c(O)c1)c1c(O)cc(O)c([C@@H]2O[C@H](CO)[C@@H](O)[C@H](O)[C@H]2O)c1O [Aspalathin]
percentage aspalathin degradation ([1]; HEPES buffer pH 6): 10% | percentage aspalathin degradation ([1]; HEPES buffer pH 7.4): 11% | percentage aspalathin degradation ([1]; deionised water): 1% | maximum concentration not cytotoxic to Caco-2 cells (>80% viability) (Caco-2 cells): 150 µM | Efflux Ratio + Inhibitor (phloridzin) (SGLT1): 0.99 ^c | Papp a-b + Inhibitor (phloridzin) (SGLT1): 1.47 ± 1.10 ^c ×10^−6 cm/s | Papp b-a + Inhibitor (phloridzin) (SGLT1): 1.47 ± 0.9 ^c ×10^−6 cm/s | Efflux Ratio + Inhibitor (verapamil) (PgP): 1.1 ^c | Papp a-b + Inhibitor (verapamil) (PgP): 1.84 ± 0.20 ^c ×10^−6 cm/s | Papp b-a + Inhibitor (verapamil) (PgP): 1.94 ± 0.68 ^c ×10^−6 cm/s
